According to publication PMC9002334 (Virology, 2022):

Columns and labels:
SARS-CoV-2 M^pro [1] = molecular target: T1, SARS-CoV-2 M^pro (Severe acute respiratory syndrome coronavirus 2, UniProt P0DTD1); assay: Inhibition assay of the SARS-CoV-2 M^pro activity; type: biochemical
HCoV-229E = assay: microbe, parasite or virus in culture; type: cell-based, Human coronavirus 229E
SARS-CoV-2 M^pro [2] = molecular target: T1, SARS-CoV-2 M^pro; conditions: ref Zhu and Xie, 2020; cited from earlier work
[3] = after the intake of 150 mg in 1 h; ref de Whalley et al., 1990; Olthof et al., 2000; cited from earlier work

| Structure (SMILES) | Inhibitive effect on the M^pro activity at 100 μM (SARS-CoV-2 M^pro [1]) | Concentration at which inhibition of HCoV-229E replication starts (HCoV-229E) | Inhibition of the SARS-CoV-2 M^pro activity (SARS-CoV-2 M^pro [2]) | further results |
| --- | --- | --- | --- | --- |
| Oc1cc(O)c2c(c1)O[C@H](c1ccc(O)c(O)c1)[C@H](O)C2 [(−)-epicatechin] | did not inhibit | 20 µM | could not | Inhibitory effect on the M^pro activity (SARS-CoV-2 M^pro [1]; range of concentrations from 0 to 200 μM): did not show an inhibitory effect |
| O=C(O[C@@H]1Cc2c(O)cc(O)cc2O[C@@H]1c1cc(O)c(O)c(O)c1)c1cc(O)c(O)c(O)c1 [EGCG, epigallocatechin gallate, reference compound] | – | 2.5 µM | effectively inhibited | – |
| O=c1c(O[C@@H]2O[C@H](CO)[C@@H](O)[C@H](O)[C@H]2O)c(-c2ccc(O)c(O)c2)oc2cc(O)cc(O)c12 [Isoquercitrin, quercetin-3-O-glycoside] | – | 2.5 µM | – | – |
| O=c1c(O)c(-c2ccc(O)c(O)c2)oc2cc(O)cc(O)c12 [Quercetin, quercetin] | – | 5.0 µM | – | Effect on HCoV-229E replication at 2.5 μM (HCoV-229E; Huh-7 cells, 2.5 μM): slightly reduce; Inhibition of HCoV-229E replication at concentration higher than 10 μM (HCoV-229E; Huh-7 cells, higher than 10 μM): strongly inhibit; EC50 (HCoV-229E; Human coronavirus 229E, Huh-7, 24 h, read-out: EC50, inhibition of HCoV-229E replication): 4.88 µM; Quercetin concentration in plasma [3]: 5.0 ± 1.0 µM |
| C[C@@H]1O[C@@H](OC[C@H]2O[C@@H](Oc3c(-c4ccc(O)c(O)c4)oc4cc(O)cc(O)c4c3=O)[C@H](O)[C@@H](O)[C@@H]2O)[C@H](O)[C@H](O)[C@H]1O [Rutin, rutin] | most effectiveness | – | – | – |
